What was measured:
[1] = xn = mol fraction of the nth substance listed; conditions: 101.3 kPa, Liquid; for speed of sound: Sing-around technique in a fixed-path interferometer; for mass density: Vibrating tube method
[2] = refractive index (Na D-line) (dimensionless); xn = mol fraction of the nth substance listed; conditions: 101.3 kPa, Liquid, Standard Abbe refractometry

c1ccc2c(c1)CCCC2 [1,2,3,4-tetrahydronaphthalene] + CCCCCCCCCCCC
Conditions	mass density, [1] [kg/m3]	refractive index, [2]	speed of sound, [1] [m/s]
293.15 K, x1 = 0.1021	763.04	1.42964	1308.1
293.15 K, x1 = 0.2015	777.99	1.43768	1318.1
293.15 K, x1 = 0.307	795.31	1.44691	1331.6
293.15 K, x1 = 0.3998	811.97	1.45578	1344
293.15 K, x1 = 0.4985	831.41	1.46621	1359.7
293.15 K, x1 = 0.5961	852.66	1.47773	1377
293.15 K, x1 = 0.7019	878.22	1.49155	1399.4
293.15 K, x1 = 0.8012	905.15	1.5062	1423.8
293.15 K, x1 = 0.8998	935.03	1.52267	1453.4
293.15 K, x1 = 1	969.52	1.54155	1489.5
303.15 K, x1 = 0.1021	755.74	1.42538	1269.8
303.15 K, x1 = 0.2015	770.65	1.43335	1280
303.15 K, x1 = 0.307	787.92	1.44249	1293.4
303.15 K, x1 = 0.3998	804.53	1.45151	1306
303.15 K, x1 = 0.4985	823.91	1.46183	1321.7
303.15 K, x1 = 0.5961	845.1	1.47333	1339
303.15 K, x1 = 0.7019	870.59	1.48719	1361.2
303.15 K, x1 = 0.8012	897.44	1.50172	1385.4
303.15 K, x1 = 0.8998	927.23	1.51815	1414.7
303.15 K, x1 = 1	961.59	1.53687	1450.1
313.15 K, x1 = 0.1021	748.42	1.42102	1232.1
313.15 K, x1 = 0.2015	763.25	1.42887	1242.2
313.15 K, x1 = 0.307	780.5	1.43817	1255.9
313.15 K, x1 = 0.3998	797.07	1.44709	1268.5
313.15 K, x1 = 0.4985	816.39	1.45748	1284.3
313.15 K, x1 = 0.5961	837.52	1.46884	1301.5
313.15 K, x1 = 0.7019	862.94	1.48267	1323.6
313.15 K, x1 = 0.8012	889.71	1.49723	1347.6
313.15 K, x1 = 0.8998	919.41	1.51359	1376.6
313.15 K, x1 = 1	953.66	1.53216	1411.5
323.15 K, x1 = 0.1021	741.07	1.4166	1194.9
323.15 K, x1 = 0.2015	755.85	1.42456	1205.4
323.15 K, x1 = 0.307	773.06	1.43374	1218.9
323.15 K, x1 = 0.3998	789.61	1.44258	1231.6
323.15 K, x1 = 0.4985	808.85	1.45304	1247.4
323.15 K, x1 = 0.5961	829.89	1.46437	1264.5
323.15 K, x1 = 0.7019	855.26	1.47817	1286.7
323.15 K, x1 = 0.8012	881.98	1.49269	1310.5
323.15 K, x1 = 0.8998	911.58	1.50898	1339.2
323.15 K, x1 = 1	945.72	1.52752	1373.6
333.15 K, x1 = 0.1021	733.68	1.41223	1158.3
333.15 K, x1 = 0.2015	748.42	1.42011	1168.6
333.15 K, x1 = 0.307	765.58	1.42925	1182.6
333.15 K, x1 = 0.3998	782.08	1.43819	1195.2
333.15 K, x1 = 0.4985	801.28	1.44856	1211
333.15 K, x1 = 0.5961	822.25	1.45998	1228.2
333.15 K, x1 = 0.7019	847.55	1.47364	1250.3
333.15 K, x1 = 0.8012	874.21	1.48822	1274
333.15 K, x1 = 0.8998	903.72	1.5043	1302.5
333.15 K, x1 = 1	937.77	1.52274	1336.4
343.15 K, x1 = 0.1021	726.25	1.4078	1122.2
343.15 K, x1 = 0.2015	740.94	1.41563	1132.6
343.15 K, x1 = 0.307	758.06	1.42483	1146.8
343.15 K, x1 = 0.3998	774.5	1.43363	1159.3
343.15 K, x1 = 0.4985	793.67	1.44396	1175.4
343.15 K, x1 = 0.5961	814.59	1.45528	1192.4
343.15 K, x1 = 0.7019	839.81	1.46911	1214.6
343.15 K, x1 = 0.8012	866.35	1.48355	1238.2
343.15 K, x1 = 0.8998	895.83	1.49932	1266.4
343.15 K, x1 = 1	929.8	1.51795	1299.8
